Laboratory results taken from patent US20230356105A1, “TETRAAZADODECANE BASED CHELATING AGENTS FOR SEPARATION OF RARE EARTH ELEMENTS AND METHOD THEREFOR” (Ustav Organicke Chemie a Biochemie AV CR V.V.I., priority 2020, published 2023).
Values joined by “and” are separate entries in the source; they are usually repeats but may differ in a detail not shown here. Identical values can stand only once. Like-named read-outs stand apart in the source and are kept apart here.

Key:
Assay type in all cases: physicochemical
[1] = Separation of Eu/Yb mixture by precipitation using L5 (Example 15); conditions: for Precipitate concentration [mM] Eu / Precipitate concentration [mM] Yb: dissolved to 150 μL
Protocol: Stock solutions were pipetted into round-bottom 2 mL Eppendorf tubes as follows: • 1. 15 μL 100 mM aqueous solution of EuCl3 • 2. 10 μL 100 mM aqueous solution of YbCl3 • 3. 30 μL 100 mM aqueous solution of compound L5. • 4. 90 μL 0.5 M MOPS buffer pH=7.
Three identical reaction mixtures were prepared. Each tube was equipped with one PTFE-coated magnetic stir bar and sealed, and the mixture was stirred on a magnetic stirrer for 24 hours at room temperature. The tubes were then centrifuged and the supernatants were carefully pipetted out and transferred to a new set of tubes. To the precipitate was added 100 μL 1 M HCl (reaching pH=0) and the mixture was stirred until full dissolution (overnight at room temperature, pH=0). The overall volume of the solution was adjusted to 150 μL volume by addition of water. The supernatants were treated with 1 M HCl for a total volume of 150 μL and pH=0.5. Concentrations of Eu and Yb in the supernatants and in the re-dissolved precipitates were determined by ICP-OES. The resulting absolute concentrations of both metals in the supernatants and precipitates, as well as calculated values of the separation factor Yb/Eu according to formula from Example 11), are summarized in Table 9. […] The average separation factor value was 152.

[2] = Separation of binary mixture of rare-earth metals by precipitation from solution using L1 (Example 7); conditions: supernatant
Protocol: Two series of reaction mixtures were prepared, where one rare-earth metal was held constant (Gd or Lu) while the other was a variable rare-earth metal element (except Pm). […] The well plate was sealed with transparent adhesive tape to prevent evaporation and was anchored to a shaker. The well-plate was shaken for 5 days at room temperature at 900 rpm.

[3] = Separation of Ho/Er mixture using L1 with repeated dissolution of the precipitate with heat (Example 12); conditions: for Precipitate concentration [mM] Ho: dissolved to 200 μL
Protocol: The experiment was conducted according to Example 11), the difference being that instead of dissolving the precipitate in acid and neutralizing by addition of base, 200 μL of water were added to the precipitate and the suspension was stirred at 80° C. for 24 hours. Full dissolution of the precipitate was not achieved during this process, but a saturated solution was formed. After cooling to room temperature, the mixtures were processed as though the precipitation had occurred normally. The resulting absolute concentrations of both metals in the supernatants and precipitates, as well as calculated values of the separation factor Er/Ho according to the formula from Example 11) are summarized in Table 6. […] Repetition of the cycles in this experiment also led to a higher degree of enrichment for one of the rare-earth elements. The average separation factor value was 2.97.

## O=C(O)CN1CCN(CC(=O)O)CCN(Cc2cccc3ccccc23)CCN(CC(=O)O)CC1 [L5, 2,2′,2″-(10-(naphthalene-1-ylmethyl)-1,4,7,10-tetraazacyklododekane-1,4,7-triyl)triacetic acid]
[1]
  Supernatant concentration [mM] Eu: 0.16 mM and 0.22 mM
  Supernatant concentration [mM] Yb: 3.69 mM and 3.85 mM and 3.97 mM
  Precipitate concentration [mM] Eu: 4.66 mM and 4.57 mM and 4.50 mM
  Precipitate concentration [mM] Yb: 0.63 mM and 0.62 mM and 0.58 mM
[1]; mean
  Precipitate concentration [mM] Eu: 4.58 mM
  Precipitate concentration [mM] Yb: 0.61 mM
  Supernatant concentration [mM] Eu: 0.19 mM
  Supernatant concentration [mM] Yb: 3.84 mM

## O=C(O)CN1CCN(CC(=O)O)CCN(Cc2ccccc2)CCN(CC(=O)O)CC1 [L1, 2,2′,2″-(10-benzyl-1,4,7,10-tetraazacyclododecane-1,4,7-triyl)triacetic Acid]
[2]; M1=Ce, M2=Gd
  [mM] Gd: 0.149 mM
  [mM] M1: 0.349 mM
[2]; M1=Ce, M2=Lu
  [mM] Lu: 5.174 mM
  [mM] M1: 5.195 mM
[2]; M1=Dy, M2=Gd
  [mM] Gd: 0.196 mM
  [mM] M1: 0.344 mM
[2]; M1=Dy, M2=Lu
  [mM] Lu: 5.252 mM
  [mM] M1: 5.268 mM
[2]; M1=Er, M2=Gd
  [mM] Gd: 5.127 mM
  [mM] M1: 5.697 mM
[2]; M1=Er, M2=Lu
  [mM] Lu: 5.298 mM
  [mM] M1: 5.558 mM
[2]; M1=Eu, M2=Gd
  [mM] Gd: 0.141 mM
  [mM] M1: 0.157 mM
[2]; M1=Eu, M2=Lu
  [mM] Lu: 6.000 mM
  [mM] M1: 5.459 mM
[2]; M1=Gd, M2=Gd
  [mM] Gd: 0.208 mM
  [mM] M1: 0.208 mM
[2]; M1=Gd, M2=Lu
  [mM] Lu: 3.875 mM
  [mM] M1: 0.325 mM
[2]; M1=Ho, M2=Gd
  [mM] Gd: 0.219 mM
  [mM] M1: 0.522 mM
[2]; M1=Ho, M2=Lu
  [mM] Lu: 5.643 mM
  [mM] M1: 5.424 mM
[2]; M1=La, M2=Gd
  [mM] Gd: 0.134 mM
  [mM] M1: 0.535 mM
[2]; M1=La, M2=Lu
  [mM] Lu: 5.188 mM
  [mM] M1: 4.968 mM
[2]; M1=Lu, M2=Gd
  [mM] Gd: 0.291 mM
  [mM] M1: 4.93 mM
[2]; M1=Lu, M2=Lu
  [mM] Lu: 5.403 mM
  [mM] M1: 5.403 mM
[2]; M1=Nd, M2=Gd
  [mM] Gd: 0.169 mM
  [mM] M1: 0.249 mM
[2]; M1=Nd, M2=Lu
  [mM] Lu: 4.301 mM
  [mM] M1: 0.456 mM
[2]; M1=Pr, M2=Gd
  [mM] Gd: 0.161 mM
  [mM] M1: 0.268 mM
[2]; M1=Pr, M2=Lu
  [mM] Lu: 5.165 mM
  [mM] M1: 5.067 mM
[2]; M1=Sc, M2=Gd
  [mM] Gd: 0.295 mM
  [mM] M1: 5.882 mM
[2]; M1=Sc, M2=Lu
  [mM] Lu: 4.903 mM
  [mM] M1: 5.49 mM
[2]; M1=Sm, M2=Gd
  [mM] Gd: 0.165 mM
  [mM] M1: 0.179 mM
[2]; M1=Sm, M2=Lu
  [mM] Lu: 4.229 mM
  [mM] M1: 0.305 mM
[2]; M1=Tb, M2=Gd
  [mM] Gd: 0.162 mM
  [mM] M1: 0.235 mM
[2]; M1=Tb, M2=Lu
  [mM] Lu: 5.094 mM
  [mM] M1: 5.272 mM
[2]; M1=Tm, M2=Gd
  [mM] Gd: 0.239 mM
  [mM] M1: 2.653 mM
[2]; M1=Tm, M2=Lu
  [mM] Lu: 5.423 mM
  [mM] M1: 5.453 mM
[2]; M1=Y, M2=Gd
  [mM] Gd: 0.183 mM
  [mM] M1: 0.471 mM
[2]; M1=Y, M2=Lu
  [mM] Lu: 5.188 mM
  [mM] M1: 5.24 mM
[2]; M1=Yb, M2=Gd
  [mM] Gd: 0.279 mM
  [mM] M1: 4.218 mM
[2]; M1=Yb, M2=Lu
  [mM] Lu: 5.148 mM
  [mM] M1: 5.226 mM
[3]; all samples
  average separation factor value Er/Ho: 2.97
[3]; group A, 1st cycle
  Separation factor Er/Ho: 2.89 and 2.84 and 3.04
  Supernatant concentration [mM] Ho: 0.36 mM and 0.33 mM
  Precipitate concentration [mM] Ho: 4.53 mM and 4.46 mM and 4.68 mM
[3]; group A, 1st cycle, mean
  Precipitate concentration [mM] Ho: 4.56 mM
  Supernatant concentration [mM] Ho: 0.35 mM
[3]; group B, 2nd cycle
  Separation factor Er/Ho: 2.69 and 2.94 and 3.69
  Precipitate concentration [mM] Ho: 3.89 mM and 3.98 mM and 3.64 mM
[3]; group B, 2nd cycle (water, 80° C., 24 hours)
  Supernatant concentration [mM] Ho: 0.27 mM and 0.32 mM and 0.25 mM
[3]; group B, 2nd cycle (water, 80° C., 24 hours), mean
  Supernatant concentration [mM] Ho: 0.28 mM
[3]; group B, 2nd cycle, mean
  Precipitate concentration [mM] Ho: 3.84 mM
[3]; group C, 3rd cycle
  Separation factor Er/Ho: 2.38 and 2.79 and 3.47
  Precipitate concentration [mM] Ho: 3.16 mM and 3.13 mM and 3.75 mM
[3]; group C, 3rd cycle (water, 80° C., 24 hours)
  Supernatant concentration [mM] Ho: 0.39 mM and 0.37 mM and 0.27 mM
[3]; group C, 3rd cycle (water, 80° C., 24 hours), mean
  Supernatant concentration [mM] Ho: 0.34 mM
[3]; group C, 3rd cycle, mean
  Precipitate concentration [mM] Ho: 3.35 mM
